One assay concerns the target CYP 2D6 (Homo sapiens, UniProt P10635). To be noted: cited from earlier work.
In the next assay the target is T1, menin-MLL interaction (Homo sapiens, UniProt O00255).
T1 construct: recombinant full length, His-tagged menin
T1 sequence (O00255 1-610): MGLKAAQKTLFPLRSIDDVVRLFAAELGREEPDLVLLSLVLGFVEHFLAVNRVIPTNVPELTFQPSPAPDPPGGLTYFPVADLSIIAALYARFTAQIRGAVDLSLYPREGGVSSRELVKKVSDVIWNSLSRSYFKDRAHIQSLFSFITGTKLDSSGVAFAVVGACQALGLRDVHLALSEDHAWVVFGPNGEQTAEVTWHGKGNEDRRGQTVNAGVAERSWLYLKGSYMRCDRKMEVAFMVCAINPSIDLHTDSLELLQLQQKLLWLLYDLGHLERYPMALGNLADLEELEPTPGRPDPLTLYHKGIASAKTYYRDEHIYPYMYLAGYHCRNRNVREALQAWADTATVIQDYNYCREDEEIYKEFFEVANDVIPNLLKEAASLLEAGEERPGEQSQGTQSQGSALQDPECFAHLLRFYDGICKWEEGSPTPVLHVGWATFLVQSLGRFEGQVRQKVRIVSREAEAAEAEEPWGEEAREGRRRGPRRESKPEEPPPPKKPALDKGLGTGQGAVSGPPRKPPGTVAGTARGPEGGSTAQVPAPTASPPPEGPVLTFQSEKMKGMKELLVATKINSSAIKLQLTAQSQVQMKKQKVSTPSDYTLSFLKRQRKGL
More on the design: method as in PMID 31253180. To be noted: read-out: Potency IC50 Menin-MLL binding; TR-FRET; previously reported; cited from earlier work.

The test system of another assay is MOLM-13 cells. Briefly: Proliferation inhibition, MOLM-13. Type of assay: cell-based, human.
The subject of assay [1] is 401 cancer cell lines derived from 28 tissues of origin. Briefly: Cell line proliferation panel (OmniScreen, 401 cancer cell lines). Type of assay: cell-based. As to the method: The characterization of proliferation effects in 401 cancer cell lines was performed on the OmniScreen™ platform (CrownBio). Briefly, cells were seeded at the appropriate density for a five-day growth period and treated with BAY-155 (10 µM maximal concentration with 3.16-fold serial dilutions with 9 dose levels) or left untreated as control. For determination of viability the CellTiter-Glo® Luminescent Cell Viability Assay (Promega, Madison, WI, USA) was used. For absolute IC50 determination, a dose-response curve was fitted using a nonlinear regression model with a sigmoidal dose-response using GraphPad Prism 5.0. The surviving rate (%) = (LumTest-LumMedium control)/(LumNon-treated-LumMedium control) × 100%.

In another assay the test system is MOLM-13 xenograft. In words: MOLM-13 xenograft efficacy. To be noted: p.o. Type of assay: in vivo, mice. As to the method: Tumor cells were injected subcutaneously into the flanks of 6- to 9-week old animals. Efficacy studies in xenograft models were performed at Bayer or EPO GmbH (Berlin-Buch, Germany) using NMRI nu/nu, SCID, BALB/c Nude female mice or SCID male mice (VCaP tumors). All animal studies were conducted in accordance with the animal welfare laws and were approved by the State Office for Health and Social Affairs Berlin (LAGeSo). Experiments were run under the animal license B3600a0007. Compound treatment started at a predefined tumor size or burden or at a predefined day after cell inoculation. BAY-155 was administered orally (p.o.) at various doses and regorafenib, tamoxifen and enzalutamide (resuspended in PEG400/H2O 6/4 or PEG400/EtOH 9/1) were used as control treatment for RKO, MCF7 and VCaP xenografts, respectively. Subcutaneous tumor volumes were determined by caliper measurement.

In the next assay the target is T2, menin (Homo sapiens, UniProt O00255).
T2 construct: purified menin (1–615 with GST-tag cleaved as described above); GST (TEV cleavable) (N, cleaved yes); made in house; host or cells: E. coli BL21 (DE3)
T2 sequence (O00255 1-615 isoform O00255-1): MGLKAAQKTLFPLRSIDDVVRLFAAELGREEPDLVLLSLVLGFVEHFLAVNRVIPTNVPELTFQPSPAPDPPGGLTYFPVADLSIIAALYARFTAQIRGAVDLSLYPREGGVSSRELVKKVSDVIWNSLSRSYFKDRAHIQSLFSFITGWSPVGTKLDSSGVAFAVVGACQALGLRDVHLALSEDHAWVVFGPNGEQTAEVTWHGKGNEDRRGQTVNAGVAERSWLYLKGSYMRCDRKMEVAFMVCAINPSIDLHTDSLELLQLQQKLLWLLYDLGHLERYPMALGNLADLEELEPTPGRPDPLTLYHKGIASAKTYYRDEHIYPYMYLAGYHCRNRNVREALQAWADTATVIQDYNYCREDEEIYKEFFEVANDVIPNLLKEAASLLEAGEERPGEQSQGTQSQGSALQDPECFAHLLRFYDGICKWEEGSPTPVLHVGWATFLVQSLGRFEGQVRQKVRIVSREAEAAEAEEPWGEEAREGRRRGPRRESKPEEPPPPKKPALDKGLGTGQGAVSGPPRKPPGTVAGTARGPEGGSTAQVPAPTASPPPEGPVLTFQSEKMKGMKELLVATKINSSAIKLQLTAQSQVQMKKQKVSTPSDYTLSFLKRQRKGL
Briefly: Isothermal Titration Calorimetry (ITC) on purified menin. The format is binding. As to the method: Cloning of expression vectors for recombinant menin was performed as follows. […] Proteins were expressed in E. coli BL21 (DE3) following 0.1 mM IPTG induction at 17 °C overnight. For purification, cell pellets were resuspended in buffer A (50 mM Tris pH 7.5, 300 mM NaCl, 2 mM DTT). Cells were lysed using a high pressure Microfluidics apparatus and the cell debris pelleted by centrifugation. The supernatant was applied to a GST column (GE Healthcare, Chicago, IL, USA), washed with two column volumes of washing buffer A and eluted with Buffer B (Buffer A plus 15 mM reduced glutathione). If necessary, the purification tag was cleaved off with the addition of His-TEV protease (1:20 mass ratio) during overnight incubation in buffer A. His-TEV was removed by IMAC column rebinding and final protein purification of either GST-cleaved or uncleaved menin-1 was performed by size exclusion chromatography using a HiLoad 16/60 Superdex 200 (GE Healthcare) column in buffer C (Buffer A but 50 mM NACl).
The compound was dissolved in 100% DMSO to a concentration of 10 mM and subsequently diluted to a final concentration of 5 µM in ITC Buffer. Isothermal Titration Calorimetry (ITC) was performed at 25 °C in a Microcal PEAQ-ITC (Malvern Panalytical). […] Reference Power was set to 6 μcal/s. Data were collected on high feedback mode. Analysis was performed with a single binding site model in the Microcal PEAQ-ITC Analysis Software (Malvern Panalytical).
(Isothermal titration calorimetry measures the heat released or taken up as one component is titrated into another.)

SMILES strings stand for the structures.

Sequence of CYP 2D6 (P10635 whole entry): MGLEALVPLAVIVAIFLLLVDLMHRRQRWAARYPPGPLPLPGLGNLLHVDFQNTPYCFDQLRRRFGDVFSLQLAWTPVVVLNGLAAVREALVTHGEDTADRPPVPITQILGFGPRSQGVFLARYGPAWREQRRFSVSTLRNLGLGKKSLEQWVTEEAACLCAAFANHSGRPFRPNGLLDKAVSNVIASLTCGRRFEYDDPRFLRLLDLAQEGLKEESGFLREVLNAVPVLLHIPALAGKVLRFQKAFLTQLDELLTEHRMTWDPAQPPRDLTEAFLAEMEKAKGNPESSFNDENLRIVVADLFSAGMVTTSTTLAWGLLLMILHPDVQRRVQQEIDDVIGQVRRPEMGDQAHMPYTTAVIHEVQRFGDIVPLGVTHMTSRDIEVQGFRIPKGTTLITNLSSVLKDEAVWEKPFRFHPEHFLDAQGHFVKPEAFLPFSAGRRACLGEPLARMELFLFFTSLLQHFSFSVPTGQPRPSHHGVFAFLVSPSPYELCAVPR

As usually defined, the IC50 is the concentration that gives 50% inhibition. By Kd is commonly meant the constant that tells how readily two partners part at equilibrium. A high value points to lower affinity. For the compound `Cc1c(CN2CCC3(CC2)CN(c2ncnc4sc(CC(F)(F)F)cc24)C3)ccc2c1cc(C#N)n2CC(N)=O` [BAY-155], the IC50 at CYP 2D6 was above 20000 nM. Further, the IC50 at menin-MLL interaction was 8 nM. Further, the “fold improved proliferation inhibition vs MI-503” value in the assay on MOLM-13 cells is given as 6.3 fold. Moreover, in assay [1], the “proliferation of cancer models originating from breast, prostate or bone” value is “not affected”; the “sensitivity of all tested MLL-AF4, MLL-AF9 and MLL-TD leukemia cell lines” value was “sensitive”. Besides, in assay [1] (120 h, read-out: IC50 in the vast majority of tested cell line models), the IC50 is above 10000 nM. The “sensitivity of KYSE-150 and RKO cells in the in vitro screen” value in assay [1] (IC50 in similar range to MV4;11 and MOLM-13) is given as “highly sensitive”. The “share of liver-derived models with reduced proliferation” value in assay [1] (n = 33, IC50 below 5 µM taken as significant) came out at 30%. Besides, the “share of blood cell-derived models with reduced proliferation” value in assay [1] (n = 73, IC50 below 5 µM taken as significant) stood at 26%. Also, in the assay on MOLM-13 xenograft, the tumor volume result is “dose-dependent inhibition of tumor volume” and the tumor weight entry is listed as “significant reduction of tumor weight”. Also, the affinity at menin, expressed as Kd, was 75 nM. At menin (ITC), the “stoichiometry factor N” value worked out at 1.06.

Values taken from article PMC7016952, “Characterization of the Menin-MLL Interaction as Therapeutic Cancer Target” (Cancers, 2020).
